This passage reports IC50 results from patent publication US20140378474A1, “5-membered heteroarylcarboxamide derivatives as plasma kallikrein inhibitors” (NOVARTIS AG, priority 2012, published 2014).

T1 sequence (P03952 391-638 limits assumed): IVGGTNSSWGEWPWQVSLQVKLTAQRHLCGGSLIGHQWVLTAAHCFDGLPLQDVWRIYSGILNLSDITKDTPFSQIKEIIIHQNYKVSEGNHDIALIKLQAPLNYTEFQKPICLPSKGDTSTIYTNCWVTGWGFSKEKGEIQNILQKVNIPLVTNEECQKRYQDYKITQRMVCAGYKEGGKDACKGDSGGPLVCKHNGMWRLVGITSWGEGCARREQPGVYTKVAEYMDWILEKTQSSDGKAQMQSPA
T1 sequence (P03952 20-390 partner limits assumed): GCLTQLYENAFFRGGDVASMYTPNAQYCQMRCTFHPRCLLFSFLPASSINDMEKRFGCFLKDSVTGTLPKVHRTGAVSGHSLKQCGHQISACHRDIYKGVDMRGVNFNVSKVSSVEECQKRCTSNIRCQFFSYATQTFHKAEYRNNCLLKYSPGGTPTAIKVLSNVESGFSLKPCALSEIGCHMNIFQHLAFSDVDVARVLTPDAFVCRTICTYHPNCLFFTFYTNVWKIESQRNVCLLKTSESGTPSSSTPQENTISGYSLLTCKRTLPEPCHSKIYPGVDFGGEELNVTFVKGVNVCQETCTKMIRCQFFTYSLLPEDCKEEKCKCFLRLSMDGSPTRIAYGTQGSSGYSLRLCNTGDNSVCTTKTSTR

This experiment has as its target T1, Human plasma kallikrein (Homo sapiens, UniProt P03952).
T1 construct: purchased Kordia (Leiden, Netherlands) batch HPKA 1303
Description: In vitro inhibition of plasma kallikrein (fluorogenic substrate DPro-Phe-Arg-(Rh110)-γGlu-OH). It is filed as biochemical. To be noted: human plasma kallikrein nominally 12 pM, substrate 0.5 μM, 1 hour pre-incubation at room temperature, read after 1 hour (t=60 min). As to the method:
In Vitro Inhibition of Plasma Kallikrein
The fluorogenic substrate DPro-Phe-Arg-(Rh110)-γGlu-OH (where DPro is the amino acid d-proline, Rh110 is the fluorophore rhodamine 110 and γGlu is a […] linked to Rh110 via the gamma-carbonyl function; from Biosyntan, Berlin, Germany), being based on the chromogenic substrate described in Gallimore et al (Thromb Res 25, 293-298, 1982), was dissolved in DMSO at 5 mM and stored at −80° C. All other chemicals were of analytical grade.
Human plasma kallikrein was purchased from Kordia (Leiden, Netherlands, batch HPKA 1303) in lyophilized form.
The protein solution was reconstituted from the lyophilisate by addition of deinonized water. The resulting stock solution comprised the protein at a concentration of 0.17 mg/ml in 4 mM sodium acetate/HCl and 150 mM NaCl at pH 5.3. The stock solution was stored in aliquots at −80° C. Enzymatic reactions were conducted in ‘assay buffer’, comprising 50 mM Hepes/NaOH at pH 7.8, 150 mM NaCl, 1 mM EDTA and 0.05% (w/v) CHAPS.
Both, enzyme and substrate were diluted in assay buffer.
All protein and peptide containing solutions were handled in siliconized tubes (Life Systems Design, Merenschwand, Switzerland). The compound solutions as well as the enzyme and the substrate solutions were transferred to 384-well plates (black Cliniplate; cat. no. 95040020 Labsystems Oy, Finland) by means of a CyBi-Well 96-channel pipettor (CyBio AG, Jena, Germany). Plate measurements were conducted by the means of a Safire2 reader (TECAN, Maennedorf, Switzerland). The Safire2 is a monochomator-based instrument and wavelengths of 485 nm and 535 nm were taken for fluorescence excitation and emission acquisition, respectively. The bandwidths were set to 10 nm in both the excitation and the emission path. The fluorescence in each well was excited by three flashes per measurement.
For the determination of IC50 values, the assays were performed at room temperature in 384-well plates with a total assay volume of 25.25 μl per well.
The test compound was dissolved in 90% (v/v) DMSO/water. For the assays, […] of the 90% (v/v) DMSO/water solution or compound solution were added per well, followed by the addition of 12.5 μl protease solution (protease in assay buffer). The final assay concentration of the human plasma kallikrein was nominally 12 pM, the 11 compound concentrations in the dilution series were in the range form 1 nM to 100 μM. After 1 hour of pre-incubation at room temperature, the reactions were started by the addition of 12.5 μl substrate solution (in assay buffer, final assay concentration was 0.5 μM). After the addition of the substrate solution, the final DMSO concentration in the assay was 0.9% (v/v). The effect of the compound on the enzymatic activity was obtained from the linear part of the progress curves and determined after 1 hour (t=60 min). The IC50 value was calculated from the plot of percentage of inhibition vs. inhibitor concentration by a logistics fit according to the following equation:
where y is the %-inhibition at the inhibitor concentration, x. A1 is the lowest inhibition value, i.e. 0%, and A2 the maximum inhibition value, i.e. 100%. The exponent, p, is the Hill coefficient. The curve fitting was conducted with the non-linear regression routine of the analysis software Origin 7.5SR6 (Origin Lab Corporation).
For orientation: IC50 means the concentration at which inhibition is half-maximal. The low end stands for higher potency, the high end for lower potency. Molecule `C[C@@H](NC(=O)c1cnn(Cc2ccc(Cn3cccn3)cc2)c1)c1cccc(Cl)c1F` [Example 28, (R)-1-(4-((1H-pyrazol-1-yl)methyl)benzyl)-N-(1-(3-chloro-2-fluorophenyl)ethyl)-1H-pyrazole-4-carboxamide] registered an IC50 of 27.2 µM.
Consider `Cn1nnc2cc(Cn3cc(C(=O)NCc4cccc(Cl)c4)cn3)ccc21` [N-(3-chlorobenzyl)-1-((1-methyl-1H-benzo[d][1,2,3]triazol-5-yl)methyl)-1H-pyrazole-4-carboxamide], for which the IC50 is above 30 µM.
Molecule `COc1cccc(Cn2cc(C(=O)NCc3ccc(Cl)cc3)cn2)c1` [N-(4-chlorobenzyl)-1-(3-methoxybenzyl)-1H-pyrazole-4-carboxamide] gave an IC50 above 30 µM.
In the case of `COc1ccc(Cn2cc(C(=O)NCc3ccc(Cl)cc3)cn2)cc1` [N-(4-chlorobenzyl)-1-(4-methoxybenzyl)-1H-pyrazole-4-carboxamide], the IC50 is above 30 µM.
With `Cc1ccc(CNC(=O)c2cn(Cc3ccc4nc(C)ccc4c3)nn2)c(Cl)n1` [N-((2-chloro-6-methylpyridin-3-yl)methyl)-1-((2-methylquinolin-6-yl)methyl)-1H-1,2,3-triazole-4-carboxamide] the figure was above 30 µM; with `COc1cc(C)c(CNC(=O)c2cn(Cc3ccc4nc(C)ccc4c3)nn2)c(C)n1` [N-((6-methoxy-2,4-dimethylpyridin-3-yl)methyl)-1-((2-methylquinolin-6-yl)methyl)-1H-1,2,3-triazole-4-carboxamide], above 30 µM.
